Results published in patent publication US10874646B2, “Epothilone analogs, methods of synthesis, methods of treatment, and drug conjugates thereof” (WILLIAM MARSH RICE UNIVERSITY, priority 2015, dated 2020).
Read-outs that look alike come from different tables or passages of the source. Blank lines part the entries; values can stand above or below the molecule they belong to.

Experiments:
[1] = system: tubulin; assay: Induction/enhancement of tubulin assembly (Lin, et al., 1996); assay type: biochemical; conditions: 10 μM tubulin, 0.4M monosodium glutamate, 30 min at room temperature
[2] = system: NCI/ADR-RES; assay: Cytotoxicity, standard NCI assay with sulforhodamine B, 96 h; assay type: cell-based, human; conditions: read-out: Cytotoxicity (nM, ± SD) NCI/ADR-RES
[3] = system: MDA-MB-435; assay: as above; assay type: cell-based, human; conditions: read-out: Cytotoxicity (nM, ± SD) MDA-MB-435
[4] = system: SNB-75; assay: as above; assay type: cell-based, human; conditions: read-out: Cytotoxicity (nM, ± SD) SNB-75
[5] = system: MCF-7; assay: as above; conditions: for IC50: read-out: Cytotoxicity (nM, ± SD) MCF-7; for GI50: read-out: cytotoxicity (GI50, nM ± SD) MCF-7
[6] = system: OVCAR-8; assay: as above; conditions: for IC50: read-out: Cytotoxicity (nM, ± SD) OVCAR-8; for GI50: read-out: cytotoxicity (GI50, nM ± SD) OVCAR-8
[7] = Table 3, read-out: Enhancement of tubulin assembly (EC50)
[8] = Homo sapiens, NCI/ADR-RES, 96 h
[9] = Table 2, read-out: induction of tubulin assembly (EC50, μM ± SD)
[10] = NCI/ADR-RES (overexpresses P-glycoprotein), IC50, 96 h at 37° C., Table 3
[11] = MDA-MB-435, IC50, 96 h at 37° C., Table 3
[12] = SNB-75, IC50, 96 h at 37° C., Table 3
[13] = MCF-7, IC50, 96 h at 37° C., Table 3
[14] = OVCAR-8, IC50, 96 h at 37° C., Table 3
[15] = OVCAR-8, 96 h at 37° C., Table 2

SMILES: C/C(=C\c1nc2ccccc2s1)[C@@H]1C[C@@H]2N(CCO)[C@]2(C)CCC[C@H](C)[C@H](O)[C@@H](C)C(=O)C(C)(C)[C@@H](O)CC(=O)O1 (some centres unmarked) [Compound 74]
- EC50 [1, 7]: 7.9 ± 1 µM
- IC50 [2, 8]: 630 ± 80 nM
- IC50 ([3]; Homo sapiens, MDA-MB-435, 96 h): 3.5 ± 0.3 nM
- IC50 ([4]; Homo sapiens, SNB-75, 96 h): 12 ± 3 nM
- IC50 ([5]; Homo sapiens, MCF7, 96 h): 11 ± 1 nM
- IC50 ([6]; Homo sapiens, OVCAR-8, 96 h): 23 ± 7 nM

- EC50 [1, 7]: 5 ± 1 µM
SMILES: CC(=O)O[C@H]1C(=O)[C@@]2(C)[C@H]([C@H](OC(=O)c3ccccc3)[C@]3(O)C[C@H](OC(=O)[C@H](O)[C@@H](NC(=O)c4ccccc4)c4ccccc4)C(C)=C1C3(C)C)[C@]1(OC(C)=O)CO[C@@H]1C[C@@H]2O [PTX, paclitaxel, reference compound]
- IC50 ([2]; Homo sapiens, NCI/ADR-RES (overexpresses P-glycoprotein), IC50, 96 h at 37° C., Table 3): 4200 nM
- IC50 ([3]; Homo sapiens, MDA-MB-435, IC50, 96 h at 37° C., Table 3): 4 ± 1 nM
- IC50 ([4]; Homo sapiens, SNB-75, IC50, 96 h at 37° C., Table 3): 15 nM
- IC50 ([5]; Homo sapiens, MCF7, 96 h): 7.8 ± 2 nM
- GI50 ([5]; Homo sapiens, MCF7, 96 h): 8.5 nM
- IC50 ([6]; Homo sapiens, OVCAR-8, 96 h): 10 ± 2 nM
- GI50 ([6]; Homo sapiens, OVCAR-8, 96 h): 6.5 ± 2 nM

SMILES: CSc1nc(/C=C(\C)[C@@H]2C[C@@H]3N[C@]3(C)CCC[C@H](C)[C@H](O)[C@@H](C)C(=O)C(C)(C)[C@@H](O)CC(=O)O2)cs1 [Compound 77]
- EC50 [1, 7]: 5 ± 1 µM
- IC50 [2, 8]: 8.8 ± 1 nM
- IC50 ([3]; Homo sapiens, MDA-MB-435, 96 h): 4.5 ± 0.5 nM
- IC50 ([4]; Homo sapiens, SNB-75, 96 h): 11 ± 3 nM
- IC50 ([5]; Homo sapiens, MCF7, 96 h): 4 ± 1 nM
- IC50 ([6]; Homo sapiens, OVCAR-8, 96 h): 16 ± 4 nM

SMILES: C/C(=C\c1csc(C)n1)[C@@H]1C[C@@H]2O[C@]2(C)CCC[C@H](C)[C@H](O)[C@@H](C)C(=O)C(C)(C)[C@@H](O)CC(=O)O1 [EpoB, epothilone B, reference compound]
- IC50 [2, 10]: 19 ± 4 nM
- IC50 [3, 11]: 5.3 ± 0.7 nM
- IC50 [4, 12]: 6.5 ± 2 nM
- IC50 [5, 13]: 9.2 ± 2 nM
- GI50 ([5]; MCF-7, 96 h at 37° C., Table 2): 5.5 nM
- IC50 [6, 14]: 11 ± 3 nM
- GI50 [6, 15]: 3.5 ± 0.7 nM

SMILES: CSc1cc(/C=C(\C)[C@@H]2C[C@@H]3N(CCO)[C@]3(C)CCC[C@H](C)[C@H](O)[C@@H](C)C(=O)C(C)(C)[C@@H](O)CC(=O)O2)nn1C (some centres unmarked) [Compound 82]
- EC50 [1, 7]: 4.6 ± 0.9 µM
- IC50 [2, 8]: 7.5 ± 2 nM
- IC50 ([3]; Homo sapiens, MDA-MB-435, 96 h): 12 ± 2 nM
- IC50 ([4]; Homo sapiens, SNB-75, 96 h): 10 ± 2 nM
- IC50 ([5]; Homo sapiens, MCF7, 96 h): 10 ± 1 nM
- IC50 ([6]; Homo sapiens, OVCAR-8, 96 h): 78 ± 4 nM

SMILES: C/C(=C\c1csc(C)n1)[C@@H]1C[C@@H]2O[C@@H]2CCC[C@H](C)[C@H](O)[C@@H](C)C(=O)C(C)(C)[C@@H](O)CC(=O)O1 [EpoA, epothilone A]
- EC50 [1, 9]: 16 ± 2 µM
- EC50 [1, 7]: 14 ± 3 µM
- IC50 [2, 10]: 35 ± 5 nM
- IC50 [3, 11]: 15 ± 2 nM
- IC50 [4, 12]: 14 ± 3 nM
- IC50 [5, 13]: 14 ± 4 nM
- GI50 ([5]; MCF-7, 96 h at 37° C., Table 2): 10 ± 2 nM
- IC50 [6, 14]: 20 ± 5 nM
- GI50 [6, 15]: 11 ± 2 nM

SMILES: C/C(=C\c1csc(CN)n1)[C@@H]1C[C@@H]2N(CCO)[C@]2(C)CCC[C@H](C)[C@H](O)[C@@H](C)C(=O)C(C)(C)[C@@H](O)CC(=O)O1 (some centres unmarked) [Compound 75]
- EC50 [1, 7]: > 60 µM
- IC50 [2, 8]: 2800 nM
- IC50 ([3]; Homo sapiens, MDA-MB-435, 96 h): 20 ± 3 nM
- IC50 ([4]; Homo sapiens, SNB-75, 96 h): 130 ± 20 nM
- IC50 ([5]; Homo sapiens, MCF7, 96 h): 65 ± 7 nM
- IC50 ([6]; Homo sapiens, OVCAR-8, 96 h): 93 ± 20 nM

SMILES: C/C(=C\c1ccccn1)[C@@H]1C[C@@H]2N(CCO)[C@]2(C)CCC[C@H](C)[C@H](O)[C@@H](C)C(=O)C(C)(C)[C@@H](O)CC(=O)O1 (some centres unmarked) [Compound 73]
- EC50 [1, 7]: > 60 µM
- IC50 [2, 8]: 4000 nM
- IC50 ([3]; Homo sapiens, MDA-MB-435, 96 h): 30 ± 4 nM
- IC50 ([4]; Homo sapiens, SNB-75, 96 h): 98 ± 10 nM
- IC50 ([5]; Homo sapiens, MCF7, 96 h): 250 ± 40 nM
- IC50 ([6]; Homo sapiens, OVCAR-8, 96 h): 170 ± 20 nM

SMILES: C/C(=C\c1csc(CCN)n1)[C@@H]1C[C@@H]2N(CCO)[C@]2(C)CCC[C@H](C)[C@H](O)[C@@H](C)C(=O)C(C)(C)[C@@H](O)CC(=O)O1 (some centres unmarked) [Compound 76]
- EC50 [1, 7]: 9.1 ± 1 µM
- IC50 [2, 8]: 45 ± 6 nM
- IC50 ([3]; Homo sapiens, MDA-MB-435, 96 h): 3.8 ± 0.7 nM
- IC50 ([4]; Homo sapiens, SNB-75, 96 h): 50 ± 10 nM
- IC50 ([5]; Homo sapiens, MCF7, 96 h): 15 ± 3 nM
- IC50 ([6]; Homo sapiens, OVCAR-8, 96 h): 8.6 ± 1 nM

SMILES: CSc1nc(/C=C(\C)[C@@H]2C[C@@H]3N(CCN)[C@]3(C)CCC[C@H](C)[C@H](O)[C@@H](C)C(=O)C(C)(C)[C@@H](O)CC(=O)O2)cs1 (some centres unmarked) [Compound 79]
- EC50 [1, 7]: 6.1 ± 0.1 µM
- IC50 [2, 8]: 70 ± 10 nM
- IC50 ([3]; Homo sapiens, MDA-MB-435, 96 h): 15 ± 4 nM
- IC50 ([4]; Homo sapiens, SNB-75, 96 h): 23 ± 6 nM
- IC50 ([5]; Homo sapiens, MCF7, 96 h): 14 ± 2 nM
- IC50 ([6]; Homo sapiens, OVCAR-8, 96 h): 63 ± 3 nM
